Experimental data: US7157256B2, “Method for producing para-hydroxystyrene and other multifunctional aromatic compounds using two-phase extractive fermentation” (E. I. du Pont de Nemours and Company, priority 2003, dated 2007)
Values joined by “and” are separate entries in the source; they are usually repeats but may differ in a detail not shown here. Equal values may be shown once.

Legend:
[1] = Partition of pHS between organic solvent and aqueous medium, two-phase flask fermentation; type: physicochemical; details: 15 h, 35° C.
Experimental: Samples were analyzed for tyrosine, phenylalanine, CA, pHCA, and pHS using reverse-phase chromatography with an Agilent HP1100 HPLC system equipped with an autosampler, diode-array detector, and ChemStation for data acquisition and processing (Agilent Technologies, Inc., Wilmington, Del.). The analyses were done using a 4.6 mm×15 cm Zorbax SB-C18 column (3.5 μm particle size), obtained from Agilent Technologies, Inc., thermostated at 35° C. The samples were run using a flow rate of 1.0 mL/min with an eight-minute solvent gradient from 5% acetonitrile/water, containing 0.1% trifluoroacetic acid, to 80% acetonitrile/water, containing 0.1% trifluoroacetic acid. A diode-array detector set at 210, 260, and 280 nm was used to detect the various compounds at their optimum absorbance wavelength.
The aqueous samples were diluted 1:3 with water, while the organic samples were diluted 1:3 with acetonitrile before injection of 50 μL of the sample into the HPLC. A standard mixture of the analytes was prepared by mixing equal portions of solutions of the individual components, each at a concentration of 1 mg/mL.
The strain used in this study was E. coli WWQ51.1, as described in Example 3. […] The OD550, pH, glucose concentration and the pHS concentration of the aqueous phases were measured as described in Example 3. The organic phases were analyzed for pHS using HPLC, as described supra.

E. coli WWQ51.1 = assay: Growth of E. coli with added pHS in two-phase fermentation; type: cell-based; details: 0.5 mL pHS (10% w/v) added; 20 mL 2-Undecanone; IPTG 0.5 mM
Experimental: The strain used in this study was E. coli WWQ51.1, as described in Example 3. The conditions were similar to those described in Example 3. Eight test cultures were inoculated; six contained 20 mL of 2-undecanone, the other two contained 20 mL of 1-undecanol. A 10% w/v solution of pHS in propylene glycol (0.5 mL), obtained from Sigma-Aldrich, Milwaukee, Wis., was added to two of the cultures containing 2-undecanone, as specified in Table 7.
The cultures were incubated in 250 mL baffled flasks at 35° C. and 300 rpm for 24 h in an incubator shaker. After this time, a sample of the aqueous phase was withdrawn and the pH, OD550, and the concentration of the fermentation products were measured, as described supra. The organic phase was also sampled and the concentration of CA and pHS were determined using HPLC, as described supra.

C=Cc1ccc(O)cc1 [pHS, para-hydroxystyrene]
pHS Partition coeff ([1]; 20 mL 2-undecanone / 50 mL test medium): 20 and 23
pHS Partition coeff ([1]; 20 mL DBE / 50 mL test medium): 29 and 30 and 31
OD550 24 h (E. coli WWQ51.1): 15.7 and 12.5
